Laboratory results as given in US11744273B2, “Sweetness enhancing volatile compositions and methods of increasing perceived sweetness of a comestible” (University of Florida Research Foundation, Inc., priority 2016, dated 2023).

Test system: perceived sweetness intensity
Assay: Strawberry consumer panel; initial multiple regression of volatiles against perceived sweetness intensity independent of glucose, fructose or sucrose (Table 5)
Assay type: in vivo, human
Conditions: for relation to sweetness intensity independent of sugars: initial step-wise multiple regression; for FRUCTOSE t RATIO / GLUCOSE t RATIO / SUCROSE t RATIO: standard least squares; for FRUCTOSE t RATIO: sweetness intensity independent of fructose; for GLUCOSE t RATIO: sweetness intensity independent of glucose; for SUCROSE t RATIO: sweetness intensity independent of sucrose
Experimental: Step-wise multiple regressions of all volatile compounds against perceived intensity of sweetness is performed independent of either glucose, fructose, or sucrose concentration, separately (Table 5).
At least 100 grams or seven berries of each sample were removed from 4° C. dark overnight storage prior to volatile collection. Samples were homogenized in a blender prior to splitting into three 15 gram replicates for immediate capturing of volatile emission and remainder of sample frozen in N2 (I) and stored at −80° C. for later sugar and acid quantification.
Oven temperatures programmed from 40° C. (0.5 min hold) at 5° C. min^−1 to 250° C. (4 min hold). Signals captured with a flame ionization detector (FID) at 280° C. Peaks from FID signal were integrated manually with Chemstation B.04.01 software (Agilent Technologies, Santa Clara, Calif.). Volatile emission (ng gFW^−1 h^−1) calculated based on individual peak area relative to sample elution standard peak area.
All consumer panels were approved by the University of Florida Institutional Review Board. […] Ages of panelist ranged from 18 to 71, with a median age of 24. Panelists self-classified themselves as 98 White or Caucasian, 11 Black or African-American, 1 Native American, Alaska Native or Aleutian, 41 Asian/Pacific Islander, and 15 Other. […] Fresh, fully-ripe strawberry fruit was removed from overnight 4° C. dark storage and allowed to warm to room temperature prior to sensory analysis. Each panelist was given one to two whole strawberries for evaluation, depending on cultivar availability. Panelist took a bite of each sample, chewed, and swallowed it. Ratings for overall liking and liking for texture were scaled on hedonic general labeled magnitude scale (gLMS) in the context of all pleasure/displeasure experiences. […] Scales were employed to mediate valid comparisons across subjects and sessions.
For the first analysis, individual volatile compound concentrations were regressed using the “enter” method in SPSS Statistics (IBM Corp, Armonk, N.Y., USA).

| Structure (SMILES) | relation to sweetness intensity independent of sugars | FRUCTOSE t RATIO | GLUCOSE t RATIO | SUCROSE t RATIO |
| --- | --- | --- | --- | --- |
| C=CC(=O)CC [1-penten-3-one] | enhance sweetness intensity | – | – | – |
| CCCCCC=O [66-25-1] | – | 1.229 | 1.178 | 0.21 |
| CCCCCO [71-41-0] | – | 0.448 | 0.296 | 1.938 |
| CCCCC(=O)C(C)=O [96-04-8] | – | 0.142 | 0.002 | −0.646 |
| CCC(=O)CC [96-22-0] | – | 1.82 | 1.576 | 0.912 |
| CCCCC(CC)COC(C)=O (stereo not drawn) [103-09-3] | – | 0.172 | 0.21 | −1.053 |
| CCCCC(CC)CO (stereo not drawn) [104-76-7] | – | 1.189 | 0.982 | 2.046 |
| CCOC(=O)CC [105-37-3] | – | −0.623 | −0.674 | 1.964 |
| CCCOC(=O)CCC [105-66-8] | – | 0.88 | 0.638 | 2.421 |
| CCCCCCCC(=O)OCC [106-32-1, ethyl octanoate] | negatively related to sweetness | – | – | – |
| CC(=O)CC(C)C [108-10-1, 4-Methyl-2-pentanone] | negatively related to sweetness | – | – | – |
| CCCCOC(=O)CC(C)C [109-19-3] | – | 2.005 | 1.954 | 1.662 |
| CCCCOC(=O)CCC [109-21-7] | – | 2.181 | 1.961 | 1.65 |
| CCCOC(C)=O [109-60-4] | – | −0.491 | −0.454 | −0.224 |
| CCCCCCCCCC(=O)OCC [110-38-3] | – | 0.281 | 0.055 | 2.621 |
| CCCCCCCCOC(=O)CCC [110-39-4] | – | 0.96 | 0.814 | 2.645 |
| CCCCC=O [110-62-3] | – | −0.572 | −0.568 | 0.997 |
| CCCCCCC=O [111-71-7] | – | 2.599 | 2.283 | 1.342 |
| CCCCCCCCOC(C)=O [112-14-1] | – | 0.413 | 0.284 | 2.292 |
| CCCCCC(=O)OCC [123-66-0] | – | 0.066 | −0.001 | 1.064 |
| CC(=O)OCCC(C)C [123-92-2] | – | −0.725 | −0.771 | 0.108 |
| CCCCCCCC=O [124-13-0] | – | 0.871 | 0.685 | 0.169 |
| CCCCCCCCC=O [124-19-6] | – | 3.696 | 3.402 | 0.226 |
| Cc1cc(C(C)(C)C)c(O)c(C(C)(C)C)c1 [128-37-0] | – | −0.856 | −1.17 | 0.482 |
| COC(=O)c1ccccc1N [134-20-3] | – | −0.009 | 0.2 | 1.386 |
| CC(=O)OCc1ccccc1 [140-11-4] | – | −0.361 | −0.513 | −1.357 |
| CCCCC(=O)OCC [539-82-2] | – | −0.48 | −0.802 | 2.273 |

| Structure (SMILES) | relation to sweetness intensity independent of sugars | FRUCTOSE t RATIO | GLUCOSE t RATIO | SUCROSE t RATIO |
| --- | --- | --- | --- | --- |
| CCCCCOC(=O)CCC [540-18-1, pentyl butyrate] | enhance sweetness intensity | – | – | – |
| CC1(C)C2CC=C(C=O)C1C2 (stereo not drawn) [564-94-3] | – | 2.588 | 2.455 | −1.322 |
| CCCC(=O)CC [589-38-8] | – | −0.217 | −0.427 | 0.592 |
| CCCCC(C)=O [591-78-6] | – | 2.807 | 2.788 | 0.767 |
| C=CC(O)CC (stereo not drawn) [616-25-1] | – | 1.773 | 1.628 | 0.795 |
| C/C=C/C(=O)OC [623-43-8] | – | 0.248 | 0.54 | −1.396 |
| CCCCC(=O)OC [624-24-8] | – | −0.406 | −0.416 | 0.662 |
| CCC(C)COC(C)=O (stereo not drawn) [624-41-9] | – | −0.433 | −0.494 | −1.323 |
| CCCCCOC(C)=O [628-63-7] | – | 0.882 | 0.749 | 0.427 |
| CCCCCCC1CCC(=O)O1 (stereo not drawn) [706-14-9] | – | 1.247 | 0.879 | 1.65 |
| CCC/C=C/CO [928-95-0] | – | −1.842 | −1.521 | −0.516 |
| CSC(C)=O [1534-08-3] | – | 0.488 | 0.429 | 1.035 |
| CC/C=C\C=O [1576-86-9] | – | 4.16 | 3.915 | 0.935 |
| CC/C=C/C=O [1576-87-0] | – | 4.566 | 4.301 | 1.024 |
| CCCCCCCCC1CCC(=O)O1 (stereo not drawn) [2305-05-7, 5-octyldihydro-2(3H)-furanone] | enhance sweetness intensity | – | – | – |
| CCCCCC(=O)OC(C)C [2311-46-8] | – | 0.238 | −0.058 | 2.211 |
| CCCC(=O)SC [2432-51-1] | – | −0.956 | −1.092 | 2.033 |
| CCC/C=C/COC(C)=O [2497-18-9] | – | −0.313 | −0.331 | −0.056 |
| CCCCC/C=C/C=O [2548-87-0] | – | 1.76 | 1.509 | 0.067 |
| CCCCCCOC(=O)CCC [2639-63-6, hexyl butyrate] | enhance sweetness intensity | – | – | – |
| CCCCCCC/C=C/C=O [3913-81-3] | – | 3.694 | 3.494 | 1.411 |
| CCCCCCCCOC(=O)CCCCC [4887-30-3] | – | 0.392 | 0.254 | 2.71 |
| CCCCCCCCCCOC(=O)CCC [5454-09-1] | – | 1.804 | 1.579 | 2.085 |
| CCCCCC(CC)CC [5881-17-4] | – | 2.894 | 2.662 | 0.608 |
| C=C[C@]1(C)CC[C@H](C(C)(C)O)O1 [5989-33-3] | – | 1.869 | 1.561 | 1.953 |
| CCOC(=O)C(C)CC (stereo not drawn) [7452-79-1] | – | 1.959 | 1.993 | −0.785 |
